Laboratory results taken from US20240109900A1, “AZABICYCLIC SHP2 INHIBITORS” (IRBM S.P.A., priority 2021, published 2024).
Where two headings read alike, the source gives them in different places.

What was measured:
[1] = target: SHP-2 enzyme (Met1-Leu525) (Homo sapiens (Human), UniProt Q06124); test: SHP2 inhibition enzymatic assay; type: biochemical; conditions: 75 μM DiFMUP substrate
Outline: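 SHP-2 (Met1-Leu525), 0.5 nM, activated with 500 nM IRS1 bis-phosphopeptide, preincubated 30 min with compounds in HEPES pH 7.2 buffer with 5 mM DTT. 75 μM DiFMUP added for 30 min at room temperature, stopped with bpV; fluorescence read. IC50 from four-parameter logistic fit of % inhibition.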

[2] = tested on: ERK phosphorylation in KYSE-520 cells; test: Phospho-ERK cellular assay; type: cell-based; conditions: Homo sapiens, KYSE-520, 2 h, read-out: PERK IC50
Outline: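 TR-FRET read-out of ERK1/2 Thr202/Tyr204 phosphorylation was taken after overnight antibody incubation at room temperature. Before that, KYSE-520 cells were treated 2 h at 37 °C with compound dilutions and lysed 30 min. Percent inhibition relative to vehicle and cell-free wells was fitted four-parametrically to give IC50.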

[3] = 0.5 nM SHP-2 activated by 500 nM IRS1 peptide, read-out: SHP2wt-IC50
[4] = KYSE-520 cells, 2 h at 37° C., phospho-ERK1/2 (Thr202/Tyr204) TR-FRET
[5] = SHP2wt-IC50, 0.5 nM SHP-2 activated by 500 nM IRS1 peptide

SHP-2 enzyme (Met1-Leu525), sequence (Q06124 1-525): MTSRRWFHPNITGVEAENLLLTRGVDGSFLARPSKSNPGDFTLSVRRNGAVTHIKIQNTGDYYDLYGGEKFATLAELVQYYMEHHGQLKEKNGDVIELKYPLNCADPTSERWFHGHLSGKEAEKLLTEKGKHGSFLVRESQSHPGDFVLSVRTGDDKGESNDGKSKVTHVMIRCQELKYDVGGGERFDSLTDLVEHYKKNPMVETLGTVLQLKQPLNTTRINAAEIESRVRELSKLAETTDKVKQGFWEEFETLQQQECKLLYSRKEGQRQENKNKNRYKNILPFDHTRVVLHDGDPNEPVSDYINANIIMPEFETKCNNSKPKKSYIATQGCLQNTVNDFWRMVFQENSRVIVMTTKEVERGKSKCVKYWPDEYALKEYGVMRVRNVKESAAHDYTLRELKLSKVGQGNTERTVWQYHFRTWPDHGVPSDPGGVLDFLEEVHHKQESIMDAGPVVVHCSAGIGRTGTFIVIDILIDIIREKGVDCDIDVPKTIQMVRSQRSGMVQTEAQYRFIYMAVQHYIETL

IC50 [1, 3]	IC50 [2, 4]	SMILES	IC50 [1, 5]	IC50 [2]
< 0.5 µM	< 1 µM	Cn1cc2c(Cl)c(-c3n[nH]c4nc(N5CC[C@@H]6[C@H](C5)[C@@]6(CN)c5ccccc5F)cnc34)ccc2n1 [Example 203, ((1S,6R,7R)-3-(3-(4-chloro-2-methyl-2H-indazol-5-yl)-1H-pyrazolo[3,4-b]pyrazin-6-yl)-7-(2-fluorophenyl)-3-azabicyclo[4.1.0]heptan-7-yl)methanamine]	–	–
–	–	Cc1csc(C2(CN)C3CCN(c4cnc5c(-c6ccc(OS(=O)(=O)F)c(Cl)c6Cl)n[nH]c5n4)CC32)n1 (stereo not drawn) [Example 450, 4-(6-(7-(aminomethyl)-7-(4-methylthiazol-2-yl)-3-azabicyclo[4.1.0]heptan-3-yl)-1H-pyrazolo[3,4-b]pyrazin-3-yl)-2,3-dichlorophenyl sulfurofluoridate]	< 0.5 µM	< 1 µM
> 3 µM	> 5 µM	Cc1nn(C)c(C)c1-c1n[nH]c2nc(N3CC[C@@H]4[C@H](C3)[C@@]4(CN)c3ccccc3F)cnc12 [Example 371, ((1S,6R,7R)-7-(2-fluorophenyl)-3-(3-(1,3,5-trimethyl-1H-pyrazol-4-yl)-1H-pyrazolo[3,4-b]pyrazin-6-yl)-3-azabicyclo[4.1.0]heptan-7-yl)methanamine]	–	–
–	–	Cc1csc([C@@]2(CN)[C@@H]3CCN(c4cnc5c(-c6ccc(OS(=O)(=O)F)c7ncccc67)n[nH]c5n4)C[C@@H]32)n1 [Example 448, 5-(6-((1S,6R,7S)-7-(aminomethyl)-7-(4-methylthiazol-2-yl)-3-azabicyclo[4.1.0]heptan-3-yl)-1H-pyrazolo[3,4-b]pyrazin-3-yl)quinolin-8-yl sulfurofluoridate]	< 0.5 µM	< 1 µM
< 0.5 µM	< 1 µM	NC[C@]1(c2ccccc2F)[C@@H]2CCN(c3cnc4c(-c5ccc6ncsc6c5)n[nH]c4n3)C[C@@H]21 [Example 118, ((1S,6R,7R)-3-(3-(benzo[d]thiazol-6-yl)-1H-pyrazolo[3,4-b]pyrazin-6-yl)-7-(2-fluorophenyl)-3-azabicyclo[4.1.0]heptan-7-yl)methanamine]	–	–
< 0.5 µM	< 1 µM	Cc1csc([C@@]2(CN)[C@@H]3CN(c4cnc(Sc5ccnc(N)c5Cl)cn4)C[C@@H]32)n1 [Example 498, 4-((5-((1R,5S,6r)-6-(aminomethyl)-6-(4-methylthiazol-2-yl)-3-azabicyclo[3.1.0]hexan-3-yl)pyrazin-2-yl)thio)-3-chloropyridin-2-amine]	–	–
< 0.5 µM	< 1 µM	Cn1cc2c(Cl)c(-c3n[nH]c4nc(N5CCC6C(C5)C6(CN)c5ncccc5F)cnc34)ccc2n1 (stereo not drawn) [Example 49, (3-(3-(4-chloro-2-methyl-2H-indazol-5-yl)-1H-pyrazolo[3,4-b]pyrazin-6-yl)-7-(3-fluoropyridin-2-yl)-3-azabicyclo[4.1.0]heptan-7-yl)methanamine]	–	–
< 0.5 µM	< 1 µM	Cn1cc2c(Cl)c(-c3n[nH]c4nc(N5C[C@@H]6[C@H](C5)[C@@]6(CN)c5ccc(F)cn5)cnc34)ccc2n1 [Example 495, ((1R,5S,6r)-3-(3-(4-chloro-2-methyl-2H-indazol-5-yl)-1H-pyrazolo[3,4-b]pyrazin-6-yl)-6-(5-fluoropyridin-2-yl)-3-azabicyclo[3.1.0]hexan-6-yl)methanamine]	–	–
< 0.5 µM	< 1 µM	NC[C@]1(c2ccccc2F)[C@@H]2CCN(c3cnc4c(-c5ccc6cc[nH]c(=O)c6c5)n[nH]c4n3)C[C@@H]21 [Example 294, 7-(6-((1S,6R,7R)-7-(aminomethyl)-7-(2-fluorophenyl)-3-azabicyclo[4.1.0]heptan-3-yl)-1H-pyrazolo[3,4-b]pyrazin-3-yl)isoquinolin-1(2H)-one]	–	–
< 0.5 µM	< 1 µM	CNC(=O)C1(CN)C2CCN(c3cnc4c(-c5ccc6nn(C)cc6c5Cl)n[nH]c4n3)CC21 (stereo not drawn) [Example 287, 7-(aminomethyl)-3-(3-(4-chloro-2-methyl-2H-indazol-5-yl)-1H-pyrazolo[3,4-b]pyrazin-6-yl)-N-methyl-3-azabicyclo[4.1.0]heptane-7-carboxamide]	–	–
< 0.5 µM	< 1 µM	Cn1c(=O)oc2cc(-c3n[nH]c4nc(N5CC[C@@H]6[C@H](C5)[C@@]6(CN)c5ccccc5F)cnc34)ccc21 [Example 353, 6-(6-((1S,6R,7R)-7-(aminomethyl)-7-(2-fluorophenyl)-3-azabicyclo[4.1.0]heptan-3-yl)-1H-pyrazolo[3,4-b]pyrazin-3-yl)-3-methylbenzo[d]oxazol-2(3H)-one]	–	–
< 0.5 µM	< 1 µM	Cc1csc([C@@]2(CN)[C@@H]3CN(c4nc5[nH]nc(-c6ccc7nn(C)cc7c6Cl)c5c(=O)n4C)C[C@@H]32)n1 [Example 472, 6-((1R,5S,6r)-6-(aminomethyl)-6-(4-methylthiazol-2-yl)-3-azabicyclo[3.1.0]hexan-3-yl)-3-(4-chloro-2-methyl-2H-indazol-5-yl)-5-methyl-1,5-dihydro-4H-pyrazolo[3,4-d]pyrimidin-4-one]	–	–
< 0.5 µM	< 1 µM	NC[C@]1(c2ccccc2F)[C@@H]2CCN(c3cnc4c(-c5ccc(F)c6[nH]c(=O)ccc56)n[nH]c4n3)C[C@@H]21 [Example 236, 5-(6-((1S,6R,7R)-7-(aminomethyl)-7-(2-fluorophenyl)-3-azabicyclo[4.1.0]heptan-3-yl)-1H-pyrazolo[3,4-b]pyrazin-3-yl)-8-fluoroquinolin-2(1H)-one]	–	–
< 0.5 µM	< 1 µM	NC[C@]1(c2ccccc2F)[C@@H]2CCN(c3cnc4c(-c5ccc6nccnc6c5Cl)n[nH]c4n3)C[C@@H]21 [Example 167, ((1S,6R,7R)-3-(3-(5-chloroquinoxalin-6-yl)-1H-pyrazolo[3,4-b]pyrazin-6-yl)-7-(2-fluorophenyl)-3-azabicyclo[4.1.0]heptan-7-yl)methanamine]	–	–
< 0.5 µM	< 1 µM	COc1ccc(-c2n[nH]c3nc(N4CC[C@@H]5[C@H](C4)[C@@]5(CN)c4ccc(F)cc4F)cnc23)c2cccnc12 [Example 200, ((1S,6R,7R)-7-(2,4-difluorophenyl)-3-(3-(8-methoxyquinolin-5-yl)-1H-pyrazolo[3,4-b]pyrazin-6-yl)-3-azabicyclo[4.1.0]heptan-7-yl)methanamine]	–	–
< 0.5 µM	< 1 µM	Cc1csc([C@@]2(CN)[C@@H]3CCN(c4cnc5c(-c6cccc(Cl)c6Cl)n[nH]c5n4)C[C@@H]32)n1 [Example 78, ((1S,6R,7S)-3-(3-(2,3-dichlorophenyl)-1H-pyrazolo[3,4-b]pyrazin-6-yl)-7-(4-methylthiazol-2-yl)-3-azabicyclo[4.1.0]heptan-7-yl)methanamine]	–	–
< 0.5 µM	< 1 µM	Cc1cc([C@@]2(CN)[C@@H]3CCN(c4cnc5c(-c6ccc7nn(C)cc7c6C)n[nH]c5n4)C[C@@H]32)no1 [Example 127, ((1S,6R,7S)-3-(3-(2,4-dimethyl-2H-indazol-5-yl)-1H-pyrazolo[3,4-b]pyrazin-6-yl)-7-(5-methylisoxazol-3-yl)-3-azabicyclo[4.1.0]heptan-7-yl)methanamine]	–	–
< 0.5 µM	< 1 µM	Cn1ncc2ccc(-c3n[nH]c4nc(N5CC[C@@H]6[C@H](C5)[C@@]6(CN)c5ccccc5F)cnc34)c(Cl)c21 [Example 364, ((1S,6R,7R)-3-(3-(7-chloro-1-methyl-1H-indazol-6-yl)-1H-pyrazolo[3,4-b]pyrazin-6-yl)-7-(2-fluorophenyl)-3-azabicyclo[4.1.0]heptan-7-yl)methanamine]	–	–
